Experimental data: patent publication US3985740A, “7-[D-(α-amino-α-phenyl-, 2-thienyl- and 3-thienylacetamido)]-3-(5-methylthiazol-2-yl)carbonylthiomethyl-3-cephem -4-carboxylic acids” (Bristol-Myers Company, priority 1974, dated 1976)
Converted amounts (≈) assume the structure as drawn. Read-outs that look alike come from different tables or passages of the source.

Experiments:
D. pneumoniae A9585 = assay: M.I.C. by tube dilution; format: cell-based; settings: Streptococcus pneumoniae, D. pneumoniae + 5% serum, 50% Nutrient Broth - 45% Antibiotic Assay Broth, overnight 37° C.
Pr. morganii A15153 = assay: M.I.C. by tube dilution; format: cell-based; settings: Morganella morganii
S. aureus A9748 = assay: M.I.C. by tube dilution; format: cell-based; settings: Staphylococcus aureus, overnight 37° C., read-out: M.I.C.
E. coli A9675 = assay: M.I.C. by tube dilution; format: cell-based; settings: Escherichia coli, A9675; at 10^-^4 dilution; overnight 37° C.; read-out: M.I.C.
[1] = system: S. aureus BX 1633-2 A9606; assay: M.I.C. by tube dilution; format: cell-based; settings: Staphylococcus aureus, overnight 37° C., read-out: M.I.C.
[2] = system: S. aureus methicillin-resistant A15097; assay: M.I.C. by tube dilution; format: cell-based; settings: Staphylococcus aureus, at 10^-^3 dilution, overnight 37° C.
K. pneumoniae A9977 = assay: M.I.C. by tube dilution; format: cell-based; settings: Klebsiella pneumoniae, A9977; at 10^-^4 dilution; overnight 37° C.; read-out: M.I.C.
Str. pyogenes A9604 = assay: M.I.C. by tube dilution; format: cell-based; settings: Streptococcus pyogenes, Str. pyogenes + 5% serum, 50% Nutrient Broth - 45% Antibiotic Assay Broth, overnight 37° C.
Pr. mirabilis A9900 = assay: M.I.C. by tube dilution; format: cell-based; settings: Proteus mirabilis, A9900, at 10^-^4 dilution, overnight 37° C.
Ser. marcescens A20019 = assay: M.I.C. by tube dilution; format: cell-based; settings: Serratia marcescens
S. aureus Smith A9537 = assay: M.I.C. by tube dilution; format: cell-based; settings: Staphylococcus aureus, overnight 37° C., read-out: M.I.C.
Sal. enteritidis A9531 = assay: M.I.C. by tube dilution; format: cell-based; settings: Salmonella enterica, ENTERITIDIS; at 10^-^4 dilution; overnight 37° C.; read-out: M.I.C.
E. coli Juhl A15119 = assay: M.I.C. by tube dilution; format: cell-based; settings: Escherichia coli, JUHLA15119
K. pneumoniae A15130 = assay: M.I.C. by tube dilution; format: cell-based; settings: Klebsiella pneumoniae, A15130, at 10^-^4 dilution, overnight 37° C.
Ps. aeruginosa A9843A = assay: M.I.C. by tube dilution; format: cell-based; settings: Pseudomonas aeruginosa
[3] = Blood levels in the mouse after oral administration; format: in vivo; settings: for concentration at 0.5 h / concentration at 1 h / concentration at 2 h / concentration at 3.5 h: blood, 100 mg/kg, read-out: Blood Level; for concentration at 1 h: 1 hr. after administration; for concentration at 2 h: 2 hrs. after administration; for concentration at 3.5 h: 3.5 hrs. after administration
Description: Blood levels in the mouse after oral administration were
determined with the following results:

[4] = system: certain important pathogenic organisms; assay: In vitro activity in the primary screening tests (overall); format: cell-based; settings: in words
Description: This combination of good oral absorption and high antibacterial activity in a cephalosporin while highly desirable is quite uncommon in compounds reported to date. […] To illustrate the unpredictability of oral absorption and antibacterial activity in a closely related series of cephalosporin compounds, Tables 1-8 below compare in vitro activities and oral absorption as tested in the mouse of the compounds of the formula ##SPC12##

[5] = BX16332A9606, at 10^-^2 dilution
[6] = BX16332A9606, at 10^-^3 dilution
[7] = at 10^-^4 dilution, overnight 37° C., read-out: M.I.C.
[8] = SMITHA9537, + 50% serum, at 10^-^4 dilution
[9] = mouse, oral, 100 mgm./kg., 0.5 hrs. after administration

Structure (SMILES): Cc1csc(C(=O)SCC2=C(C(=O)O)N3C(=O)C(NC(=O)[C@H](N)c4ccccc4)[C@H]3SC2)n1 (stereo partly drawn) [Compound 556, 7-[D-α-aminophenylacetamido]-3-(4-methylthiazol-2-yl)carbonylthiomethyl-3-cephem-4-carboxylic acid]
- MIC (D. pneumoniae A9585): 1.3 µg/mL
- MIC (Pr. morganii A15153): 125 µg/mL (≈ 248 µM)
- MIC (S. aureus A9748; A9748, at 10^-^2 dilution): 8 µg/mL (≈ 15.9 µM)
- MIC (S. aureus A9748; A9748, at 10^-^3 dilution): 4 µg/mL (≈ 7.93 µM)
- MIC (E. coli A9675): 32 µg/mL (≈ 63.4 µM)
- MIC [1, 5]: 4 µg/mL (≈ 7.93 µM)
- MIC [1, 6]: 1.3 µg/mL (≈ 2.58 µM)
- MIC [2]: 4 µg/mL (≈ 7.93 µM)
- MIC (K. pneumoniae A9977): 32 µg/mL (≈ 63.4 µM)
- MIC (Str. pyogenes A9604): 2.5 µg/mL
- MIC (Pr. mirabilis A9900; read-out: M.I.C.): 32 µg/mL (≈ 63.4 µM)
- MIC (Ser. marcescens A20019; [7]): 63 µg/mL (≈ 125 µM)
- MIC (S. aureus Smith A9537; [8]): 63 µg/mL
- MIC (S. aureus Smith A9537; SMITHA9537, at 10^-^4 dilution): 1.3 µg/mL (≈ 2.58 µM)
- MIC (Sal. enteritidis A9531): 1 µg/mL (≈ 1.98 µM)
- MIC (E. coli Juhl A15119; [7]): 32 µg/mL (≈ 63.4 µM)
- MIC (K. pneumoniae A15130): 125 µg/mL (≈ 248 µM)
- MIC (Ps. aeruginosa A9843A): 125 µg/mL (≈ 248 µM)
- concentration at 0.5 h [3, 9]: 15200 ng/mL
- concentration at 1 h ([3]; mouse, oral, 100 mgm./kg.): 16200 ng/mL
- concentration at 2 h ([3]; mouse, oral, 100 mgm./kg.): 7800 ng/mL
- concentration at 3.5 h ([3]; mouse, oral, 100 mgm./kg.): < 2100 ng/mL
- Blood Level [3, 9]: 15200 ng/mL

Structure (SMILES): Cc1nc(C(=O)SCC2=C(C(=O)O)N3C(=O)C(NC(=O)[C@H](N)c4ccccc4)[C@H]3SC2)sc1C (stereo partly drawn) [Compound 587, 7-[D-α-aminophenylacetamido]-3-(4,5-dimethylthiazol-2-yl)carbonylthiomethyl-3-cephem-4-carboxylic acid]
- MIC (D. pneumoniae A9585): 2.5 µg/mL
- MIC (Pr. morganii A15153): > 125 µg/mL
- MIC (S. aureus A9748; A9748, at 10^-^2 dilution): 16 µg/mL (≈ 30.8 µM)
- MIC (S. aureus A9748; A9748, at 10^-^3 dilution): 4 µg/mL (≈ 7.71 µM)
- MIC (E. coli A9675): 32 µg/mL (≈ 61.7 µM)
- MIC [1, 5]: 1 µg/mL (≈ 1.93 µM)
- MIC [1, 6]: 0.6 µg/mL (≈ 1.16 µM)
- MIC [2]: 4 µg/mL (≈ 7.71 µM)
- MIC (K. pneumoniae A9977): 32 µg/mL (≈ 61.7 µM)
- MIC (Str. pyogenes A9604): 2.5 µg/mL
- MIC (Pr. mirabilis A9900): > 125 µg/mL
- MIC (Ser. marcescens A20019): > 125 µg/mL
- MIC (S. aureus Smith A9537; [8]): > 63 µg/mL
- MIC (S. aureus Smith A9537; SMITHA9537, at 10^-^4 dilution): 0.3 µg/mL (≈ 0.578 µM)
- MIC (Sal. enteritidis A9531): 2.5 µg/mL (≈ 4.82 µM)
- MIC (E. coli Juhl A15119; [7]): 16 µg/mL (≈ 30.8 µM)
- MIC (K. pneumoniae A15130): > 125 µg/mL
- MIC (Ps. aeruginosa A9843A): > 125 µg/mL
- concentration at 0.5 h [3, 9]: 6300 ng/mL
- concentration at 1 h ([3]; mouse, oral, 100 mgm./kg.): 8900 ng/mL
- concentration at 2 h ([3]; mouse, oral, 100 mgm./kg.): 4300 ng/mL
- concentration at 3.5 h ([3]; mouse, oral, 100 mgm./kg.): 2000 ng/mL

Structure (SMILES): N[C@@H](C(=O)NC1C(=O)N2C(C(=O)O)=C(CSC(=O)c3nccs3)CS[C@H]12)c1ccccc1 (stereo partly drawn) [Compound 567, 7-[D-(-)-α-Aminophenylacetamido]-3-(thiazol-2-yl)carbonylthiomethyl-3-cephem-4-carboxylic acid]
- MIC (D. pneumoniae A9585): 0.04 µg/mL
- MIC (Pr. morganii A15153; [7]): 63 µg/mL (≈ 128 µM)
- MIC (S. aureus A9748; A9748, at 10^-^2 dilution): 16 µg/mL (≈ 32.6 µM)
- MIC (S. aureus A9748; A9748, at 10^-^3 dilution): 4 µg/mL (≈ 8.15 µM)
- MIC (E. coli A9675): 4 µg/mL (≈ 8.15 µM)
- MIC [1, 5]: 2 µg/mL (≈ 4.08 µM)
- MIC [1, 6]: 0.6 µg/mL (≈ 1.22 µM)
- MIC [2]: 4 µg/mL (≈ 8.15 µM)
- activity relative to cephalexin [4]: excellent activity relative to cephalexin
- MIC (K. pneumoniae A9977): 2 µg/mL (≈ 4.08 µM)
- MIC (Str. pyogenes A9604): 0.04 µg/mL
- MIC (Pr. mirabilis A9900; read-out: M.I.C.): 2 µg/mL (≈ 4.08 µM)
- MIC (Ser. marcescens A20019): 125 µg/mL (≈ 255 µM)
- MIC (S. aureus Smith A9537; [8]): 8 µg/mL
- MIC (S. aureus Smith A9537; SMITHA9537, at 10^-^4 dilution): 0.3 µg/mL (≈ 0.612 µM)
- MIC (Sal. enteritidis A9531): 0.08 µg/mL (≈ 0.163 µM)
- MIC (E. coli Juhl A15119): 1 µg/mL (≈ 2.04 µM)
- MIC (K. pneumoniae A15130; read-out: M.I.C.): 8 µg/mL (≈ 16.3 µM)
- MIC (Ps. aeruginosa A9843A): > 125 µg/mL
- concentration at 0.5 h [3, 9]: 16000 ng/mL
- concentration at 1 h ([3]; mouse, oral, 100 mgm./kg.): 14100 ng/mL
- concentration at 2 h ([3]; mouse, oral, 100 mgm./kg.): 3400 ng/mL
- concentration at 3.5 h ([3]; mouse, oral, 100 mgm./kg.): < 400 ng/mL
- oral absorption ([3]; in words): good oral absorption properties
